# Values of other authors in patent US20250339366A1, “AN ORODISPERSIBLE TABLET OF RIVAROXABAN” (INTAS PHARMACEUTICALS LTD., priority 2022, published 2025).
compound,measurement,value
"O=C(NC[C@H]1CN(c2ccc(N3CCOCC3=O)cc2)C(=O)O1)c1ccc(Cl)s1 [Rivaroxaban, 5-Chloro-N-({(5S)-2-oxo-3-[4-(3-oxo-4-morpholinyl)phenyl]-1,3-oxzolidin-5-yl}methyl)-2-thiophene-carboxamide]",Solubility in water,practically insoluble in water
